Assay results as given in ChEMBL document CHEMBL1201862, “PubChem BioAssay data set” (2004).
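Following 48 hours of exposure in 96-well plates, responses at five concentrations were used to interpolate endpoints linearly. GI50 = concentration required for 50% inhibition of growth.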 The source made the active and inactive calls. Cut-off read from the data, not from the text of the source: active = GI50 up to about 1.1 µM and inactive = higher.

Key:
Assay in all cases: DTP human tumour cell line panel, 48 h
CCRF-CEM = test system: CCRF-CEM
ACHN = test system: ACHN
SK-MEL-5 = test system: SK-MEL-5
UO-31 = test system: UO-31
A549 = test system: A549
SNB-75 = test system: SNB-75
UACC-62 = test system: UACC-62
K562 = test system: K562
UACC-257 = test system: UACC-257
HT-29 = test system: HT-29
NCI-H460 = test system: NCI-H460
MOLT-4 = test system: MOLT-4
TK-10 = test system: TK-10
786-0 = test system: 786-0
OVCAR-3 = test system: OVCAR-3
Malme-3M = test system: Malme-3M

Measured: GI50

CC1(n2nc(-c3ccccc3)n(-c3ccccc3)c2=O)CSC1
inactive: CCRF-CEM > 100 µM | ACHN > 100 µM | SK-MEL-5 > 100 µM | UO-31 > 100 µM | A549 > 100 µM | SNB-75 > 100 µM | UACC-62 > 100 µM | K562 > 100 µM | UACC-257 > 100 µM | HT-29 > 100 µM | NCI-H460 > 100 µM | MOLT-4 > 100 µM | TK-10 > 100 µM | 786-0 > 100 µM

O=C(c1ccccc1)[C@H]1Nc2ccc(Cl)cc2[C@H]2OCCC[C@@H]12
inactive: ACHN 31.3 µM | OVCAR-3 14.9 µM | UO-31 15.9 µM | UACC-62 17.8 µM | K562 22.6 µM | HT-29 18.5 µM | NCI-H460 18 µM | MOLT-4 16.8 µM | TK-10 28.5 µM | Malme-3M 25.6 µM

O=P(Nc1cccc(Cl)c1)(Oc1ccccc1)N(CCCl)CCCl (stereo not given)
inactive: CCRF-CEM > 100 µM | ACHN 16.7 µM | OVCAR-3 14.2 µM | SK-MEL-5 12.4 µM | UO-31 85.9 µM | A549 13.2 µM | SNB-75 15.6 µM | UACC-62 11.6 µM | K562 99.3 µM | UACC-257 14.1 µM | HT-29 14.8 µM | MOLT-4 17.4 µM | TK-10 13.7 µM | Malme-3M 14.9 µM

Cn1c(=O)n(CC2CS2)c2ccccc21 (stereo not given)
inactive: CCRF-CEM 70 µM | ACHN > 100 µM | OVCAR-3 > 100 µM | UO-31 > 100 µM | A549 > 100 µM | SNB-75 > 100 µM | UACC-62 > 100 µM | K562 > 100 µM | HT-29 > 100 µM | NCI-H460 > 100 µM | MOLT-4 88.1 µM | TK-10 > 100 µM | Malme-3M > 100 µM

O=C(c1ccc(O)cc1O)C1C(c2ccc(O)cc2)OC(c2ccc(O)cc2)C1C(=O)c1ccc(O)cc1O (stereo not given)
inactive: ACHN 22.2 µM | OVCAR-3 18.7 µM | SK-MEL-5 16.1 µM | UO-31 18.7 µM | A549 > 100 µM | SNB-75 16.6 µM | UACC-257 20.5 µM | HT-29 34.2 µM | NCI-H460 42.8 µM | TK-10 14.7 µM | Malme-3M 14.2 µM | 786-0 5.38 µM

O=C(Nc1ccccc1)C(=O)C(C(=O)c1ccccc1F)C1OC(=O)c2ccccc21 (stereo not given)
inactive: CCRF-CEM 29.5 µM | ACHN 49.9 µM | SK-MEL-5 71.8 µM | UO-31 47.3 µM | A549 37.8 µM | SNB-75 21.1 µM | UACC-62 23.5 µM | K562 44.7 µM | UACC-257 66.5 µM | HT-29 37.9 µM | NCI-H460 37.7 µM | MOLT-4 28.4 µM | TK-10 69.2 µM

Cc1cc(N(CCC#N)CCC#N)ccc1/N=N/c1cccc(C(=O)O)c1
inactive: CCRF-CEM > 100 µM | ACHN > 100 µM | OVCAR-3 56 µM | SK-MEL-5 > 100 µM | UO-31 > 100 µM | A549 > 100 µM | SNB-75 34.1 µM | UACC-62 60.5 µM | K562 > 100 µM | UACC-257 > 100 µM | HT-29 > 100 µM | MOLT-4 > 100 µM | TK-10 > 100 µM | Malme-3M 83 µM | 786-0 > 100 µM

Clc1ccc2c(Cl)nc(-c3ccccc3)nc2c1
inactive: CCRF-CEM 22.9 µM | ACHN 20.9 µM | OVCAR-3 17.2 µM | SK-MEL-5 16.5 µM | UO-31 24.5 µM | SNB-75 17.7 µM | UACC-62 19.4 µM | K562 23.4 µM | UACC-257 26.2 µM | HT-29 26.4 µM | NCI-H460 24.3 µM | MOLT-4 20.2 µM | TK-10 46.1 µM | Malme-3M 24.3 µM
